Experimental data as given in US10729130B2, “Nematicidal compositions and methods of using them” (Eden Research plc, priority 2004, dated 2020).

Key:
Format in all cases: physicochemical
[1] = Maximal citral and L-carvone loading in Baker's yeast particles (free terpene score); set-up: key to Free Terpene: +: “free terpene” refers to the visible presence of terpene in the centrifuged reaction mixture; −: The absence of free terpene indicates complete absorption of the terpene by the particles; conditions: for Free Terpene: 500 μl 20 mg/ml YP, overnight room temperature
Protocol: Samples were centrifuged at 14,000×g for 10 minutes and the appearance of free terpene floating on the aqueous layer was scored. The expression “free terpene” refers to the visible presence of terpene in the centrifuged reaction mixture. The absence of free terpene indicates complete absorption of the terpene by the particles. The highest volume of terpene absorbed by the particles, as evidenced by the absence of free terpene, was recorded as the maximal volume of absorbed terpene emulsion.

[2] = Kinetics of terpene loading into various particles at room temperature or 37° C.; set-up: key: +: “free terpene” refers to the visible presence of terpene in the centrifuged reaction mixture; −: The absence of free terpene indicates complete absorption of the terpene by the particles
Protocol: 1% Tween-80 solution was prepared by sonicating 1 ml 10% Tween-80 in 10 ml water. • Baker's YP was prepared by mixing 5 g of bakers YP in 20 ml 1% Tween-80. • Nutrex™ YGP suspension was prepared by mixing 2 g Nutrex™ YGP in 20 ml 1% Tween-80. • SAF Mannan™ suspension was prepared by mixing 2 g SAF Mannan™ in 20 ml 1% Tween-80.
The reactions were incubated for 1, 3, 6, 9 and 24 hours at room temperature or 37° C. After incubation samples were centrifuged at 14,000×g for 10 minutes and the appearance of free terpene floating on the aqueous layer was scored. The highest volume of terpene absorbed by the particles as evidenced by the absence of free terpene was recorded as the volume of absorbed terpene emulsion. Colour of the encapsulated pellet was scored at 24 hours.

[3] = Baker's YP loading of different terpenes and terpene mixtures; set-up: key to Free Terpene: +: “free terpene” refers to the visible presence of terpene in the centrifuged reaction mixture; −: The absence of free terpene indicates complete absorption of the terpene by the particles; conditions: for Free Terpene: Baker's YP 250 mg/ml 500 μl
Protocol: Increasing volumes of terpene emulsion were mixed with 250 mg/ml Baker's YP or 250 mg/ml SAF Mannan™ overnight at room temperature as shown in Tables 27 and 28. Samples were centrifuged at 14,000×g for 10 minutes and the appearance of free terpene floating on the aqueous layer was scored. The highest volume of terpene emulsion absorbed by Baker's YP or SAF Mannan™ as evidenced by the absence of free terpene was recorded as the volume of absorbed terpene emulsion. Colour of encapsulated terpenes in the pellet was recorded.
Percentage loaded represents a ratio of the amount of terpene loaded to the amount of particle present (weight for weight).

[4] = Terpene stability: yellow colored oxidation product (colour of encapsulated terpene pellet); set-up: key to Colour: W = white; Y = yellow; sl = slight; int = intermediate; key to Color: White, W; Yellow, Y; Very Yellow, VY; conditions: for Color: Table 26, scored at 24 hours
Protocol: Loading reactions were set up as shown in Table 25 and left to incubate overnight. Samples were centrifuged at 14,000×g for 10 minutes and the appearance of free terpene floating on the aqueous layer and the color of the encapsulated terpenes in the pellet was scored. The highest volume of terpene absorbed by particles as evidenced by the absence of free terpene was recorded as the volume of absorbed terpene emulsion. The reactions were incubated for 1, 3, 6, 9 and 24 hours at room temperature or 37° C. After incubation samples were centrifuged at 14,000×g for 10 minutes and the appearance of free terpene floating on the aqueous layer was scored. The highest volume of terpene absorbed by the particles as evidenced by the absence of free terpene was recorded as the volume of absorbed terpene emulsion. Colour of the encapsulated pellet was scored at 24 hours. Increasing volumes of terpene emulsion were mixed with 250 mg/ml Baker's YP or 250 mg/ml SAF Mannan™ overnight at room temperature as shown in Tables 27 and 28. Samples were centrifuged at 14,000×g for 10 minutes and the appearance of free terpene floating on the aqueous layer was scored. The highest volume of terpene emulsion absorbed by Baker's YP or SAF Mannan™ as evidenced by the absence of free terpene was recorded as the volume of absorbed terpene emulsion. Colour of encapsulated terpenes in the pellet was recorded.

In the case of `CC(C)=CCCC(C)=CC=O` [Citral, citral], the “terpene emulsion absorbed and encapsulated per 10 mg of YP” value ([1]; Baker's YP 20 mg/ml) is reported as “at least 5 μl”, the “Free Terpene” value ([1]; emulsion 0.5 μl, 10% Tween-80 500 μl) is reported as “−” and the “Free Terpene” value ([1]; emulsion 1.65 μl, 10% Tween-80 500 μl) is reported as “−”. The “Free Terpene” value ([1]; emulsion 5 μl, 10% Tween-80 495 μl) was “−”, the “Free Terpene” value ([1]; emulsion 50 μl, 10% Tween-80 450 μl) was “+” and the “Free Terpene” value ([1]; emulsion 165 μl, 10% Tween-80 335 μl) was “+”. For the same compound, the “Free Terpene” value ([1]; emulsion 500 μl, no Tween-80) was “+”, the “Free Terpene (hr)” value ([2]; 37 ° C., Bakers 250 mg/ml, emulsion 788 μl L-carvone or 525 μl Citral, 1 hr) was “+” and the “Free Terpene (hr)” value ([2]; 37 ° C., Bakers 250 mg/ml, emulsion 788 μl L-carvone or 525 μl Citral, 3 hr) was “−”. The “Free Terpene (hr)” value ([2]; 37 ° C., Bakers 250 mg/ml, emulsion 788 μl L-carvone or 525 μl Citral, 6 hr) was “−”, the “Free Terpene (hr)” value ([2]; 37 ° C., Bakers 250 mg/ml, emulsion 788 μl L-carvone or 525 μl Citral, 9 hr) was “−” and the “Free Terpene (hr)” value ([2]; 37 ° C., Bakers 250 mg/ml, emulsion 788 μl L-carvone or 525 μl Citral, 24 hr) was “−”. The “Free Terpene (hr)” value ([2]; 37 ° C., Nutrex 100 mg/ml, emulsion 1050 μl L-carvone or 788 μl Citral, 1 hr) was “+”, the “Free Terpene (hr)” value ([2]; 37 ° C., Nutrex 100 mg/ml, emulsion 1050 μl L-carvone or 788 μl Citral, 3 hr) was “−” and the “Free Terpene (hr)” value ([2]; 37 ° C., Nutrex 100 mg/ml, emulsion 1050 μl L-carvone or 788 μl Citral, 6 hr) was “−”. The “Free Terpene (hr)” value ([2]; 37 ° C., Nutrex 100 mg/ml, emulsion 1050 μl L-carvone or 788 μl Citral, 9 hr) was “−”, the “Free Terpene (hr)” value ([2]; 37 ° C., Nutrex 100 mg/ml, emulsion 1050 μl L-carvone or 788 μl Citral, 24 hr) was “−” and the “Free Terpene (hr)” value ([2]; 37 ° C., SAF 100 mg/ml, emulsion 1050 μl L-carvone or 788 μl Citral, 1 hr) was “+”. The “Free Terpene (hr)” value ([2]; 37 ° C., SAF 100 mg/ml, emulsion 1050 μl L-carvone or 788 μl Citral, 3 hr) was “−”, the “Free Terpene (hr)” value ([2]; 37 ° C., SAF 100 mg/ml, emulsion 1050 μl L-carvone or 788 μl Citral, 6 hr) was “−” and the “Free Terpene (hr)” value ([2]; 37 ° C., SAF 100 mg/ml, emulsion 1050 μl L-carvone or 788 μl Citral, 9 hr) was “−”. The “Free Terpene (hr)” value ([2]; 37 ° C., SAF 100 mg/ml, emulsion 1050 μl L-carvone or 788 μl Citral, 24 hr) was “−”, the “Free Terpene (hr)” value ([2]; Rt, Bakers 250 mg/ml, emulsion 788 μl L-carvone or 525 μl Citral, 1 hr) was “+” and the “Free Terpene (hr)” value ([2]; Rt, Bakers 250 mg/ml, emulsion 788 μl L-carvone or 525 μl Citral, 3 hr) was “−”. The “Free Terpene (hr)” value ([2]; Rt, Bakers 250 mg/ml, emulsion 788 μl L-carvone or 525 μl Citral, 6 hr) was “−”, the “Free Terpene (hr)” value ([2]; Rt, Bakers 250 mg/ml, emulsion 788 μl L-carvone or 525 μl Citral, 9 hr) was “−” and the “Free Terpene (hr)” value ([2]; Rt, Bakers 250 mg/ml, emulsion 788 μl L-carvone or 525 μl Citral, 24 hr) was “−”. For the same compound, the “Free Terpene (hr)” value ([2]; Rt, Nutrex 100 mg/ml, emulsion 1050 μl L-carvone or 788 μl Citral, 1 hr) was “+”, the “Free Terpene (hr)” value ([2]; Rt, Nutrex 100 mg/ml, emulsion 1050 μl L-carvone or 788 μl Citral, 3 hr) was “−” and the “Free Terpene (hr)” value ([2]; Rt, Nutrex 100 mg/ml, emulsion 1050 μl L-carvone or 788 μl Citral, 6 hr) was “−”. The “Free Terpene (hr)” value ([2]; Rt, Nutrex 100 mg/ml, emulsion 1050 μl L-carvone or 788 μl Citral, 9 hr) was “−”, the “Free Terpene (hr)” value ([2]; Rt, Nutrex 100 mg/ml, emulsion 1050 μl L-carvone or 788 μl Citral, 24 hr) was “−” and the “Free Terpene (hr)” value ([2]; Rt, SAF 100 mg/ml, emulsion 1050 μl L-carvone or 788 μl Citral, 1 hr) was “+”. The “Free Terpene (hr)” value ([2]; Rt, SAF 100 mg/ml, emulsion 1050 μl L-carvone or 788 μl Citral, 3 hr) was “−”, the “Free Terpene (hr)” value ([2]; Rt, SAF 100 mg/ml, emulsion 1050 μl L-carvone or 788 μl Citral, 6 hr) was “−” and the “Free Terpene (hr)” value ([2]; Rt, SAF 100 mg/ml, emulsion 1050 μl L-carvone or 788 μl Citral, 9 hr) was “−”. The “Free Terpene (hr)” value ([2]; Rt, SAF 100 mg/ml, emulsion 1050 μl L-carvone or 788 μl Citral, 24 hr) was “−”, the “Free Terpene” value ([3]; emulsion 15 μl, 1% Tween-80 485 μl) was “−” and the “Free Terpene” value ([3]; emulsion 37.5 μl, 1% Tween-80 462.5 μl) was “−”. For the same compound, the “Free Terpene” value ([3]; emulsion 75 μl, 1% Tween-80 425 μl) was “−”, the “Free Terpene” value ([3]; emulsion 150 μl, 1% Tween-80 350 μl) was “+” and the “Free Terpene” value ([3]; emulsion 225 μl, 1% Tween-80 275 μl) was “+”. For the same compound, the “Free Terpene” value ([3]; emulsion 450 μl, 1% Tween-80 50 μl) was “+”, the “Vol. Loaded μl” value ([3]; approximate maximal terpene loading in Baker's YP) was 75 µL and the Colour ([4]; Table 25, Baker's 250 mg/ml, overnight) was “Y”. For the same compound, the Colour ([4]; Table 25, Levacan 217 mg/ml, overnight) was “int”, the Colour ([4]; Table 25, Nutrex 163 mg/ml, overnight) was “Y” and the Colour ([4]; Table 25, Nutricepts 99 mg/ml, overnight) was “Y”. The Colour ([4]; Table 25, SAF Mannan 234 mg/ml, overnight) was “W”, the Colour ([4]; Table 25, WGP 121 mg/ml, overnight) was “int” and the Colour ([4]; Table 25, no particle, emulsion in 1% Tween 80, overnight) was “Y”. The Color ([4]; 37 ° C., Bakers 250 mg/ml) was “VY”, the Color ([4]; 37 ° C., Nutrex 100 mg/ml) was “VY” and the Color ([4]; 37 ° C., SAF 100 mg/ml) was “W”. For the same compound, the Color ([4]; Rt, Bakers 250 mg/ml) was “Y”, the Color ([4]; Rt, Nutrex 100 mg/ml) was “Y” and the Color ([4]; Rt, SAF 100 mg/ml) was “W”. For the same compound, the Colour ([4]; Table 27, Baker's YP, emulsion 15 μl) was “Y”, the Colour ([4]; Table 27, Baker's YP, emulsion 37.5 μl) was “Y” and the Colour ([4]; Table 27, Baker's YP, emulsion 75 μl) was “Y”. For the same compound, the Colour ([4]; Table 27, Baker's YP, emulsion 112.5 μl) was “Y”, the Colour ([4]; Table 27, Baker's YP, emulsion 150 μl) was “Y” and the Colour ([4]; Table 27, Baker's YP, emulsion 225 μl) was “Y”. For the same compound, the Colour ([4]; Table 27, Baker's YP, emulsion 450 μl) was “Y”, the Colour ([4]; colour of encapsulated terpene in pellet, SAF Mannan 500 μl, terpene emulsion vol 15) was “W” and the Colour ([4]; colour of encapsulated terpene in pellet, SAF Mannan 500 μl, terpene emulsion vol 37.5) was “W”. The Colour ([4]; colour of encapsulated terpene in pellet, SAF Mannan 500 μl, terpene emulsion vol 75) was “W”, the Colour ([4]; colour of encapsulated terpene in pellet, SAF Mannan 500 μl, terpene emulsion vol 112.5) was “W” and the Colour ([4]; colour of encapsulated terpene in pellet, SAF Mannan 500 μl, terpene emulsion vol 150) was “W”. For the same compound, the Colour ([4]; colour of encapsulated terpene in pellet, SAF Mannan 500 μl, terpene emulsion vol 225) was “W” and the Colour ([4]; colour of encapsulated terpene in pellet, SAF Mannan 500 μl, terpene emulsion vol 450) was “W”.
